NO level, viability and IC50 data for six compounds are collected here from publication PMC3634465, “New Anti-Inflammatory Aromatic Components from Antrodia camphorata” (International Journal of Molecular Sciences, 2013).

In brackets after ≈: the same amount, converted by molar mass.

Data set [1] has as its system LPS-induced NO production in RAW264.7 macrophages. The data set is described as follows: LPS-induced NO production in macrophages (nitrite, Griess reaction). It is filed as cell-based, murine. The note with it: LPS 100 ng/mL, 24 h; for NO level: LPS alone 25.3 ± 3.0, control 2.5 ± 0.2; for IC50: Mus musculus, RAW264.7, non-linear regression, read-out: IC50 of inhibition of LPS-induced NO production. On the procedure:
(§1) A murine macrophage cell line, RAW264.7 (BCRC No. 60001), was purchased from the Bioresources Collection and Research Center (BCRC, Hsinchu, Taiwan) of the Food Industry Research and Development Institute (Hsinchu, Taiwan). Cells were cultured in plastic dishes containing Dulbecco’s Modified Eagle Medium (DMEM, Sigma, St. Louis, MO, USA) supplemented with 10% fetal bovine serum (FBS, Sigma) in a CO2 incubator (5% CO2 in air) at 37 °C and subcultured every 3 days at a dilution of 1:5 using 0.05% trypsin-0.02% EDTA in Ca^2+-, Mg^2+-free phosphate-buffered saline (DPBS).
NO production was indirectly assessed by measuring the nitrite levels in the cultured media and serum determined by a colorimetric method based on the Griess reaction. The cells were incubated with different concentrations of samples in the presence of LPS (100 ng/mL) at 37 °C for 24 h. Then, cells were dispensed into 96-well plates, and 100 μL of each supernatant was mixed with the same volume of Griess reagent (1% sulfanilamide, 0.1% naphthyl ethylenediamine dihydrochloride and 5% phosphoric acid) and incubated at room temperature for 10 min; the absorbance was measured at 540 nm with a Micro-Reader (Molecular Devices).
IC50 values were estimated using a non-linear regression algorithm (Sigma Plot 8.0; SPSS Inc., Chicago, IL, USA). Statistical evaluation was carried out by one-way analysis of variance (ANOVA, followed by Scheffe’s multiple range tests).

Data set [2] can be described thus: Cell viability (MTT) in the presence of LPS. It counts as cell-based, murine. The settings on record: mouse, RAW264.7 macrophage cells, 100 ng/mL LPS, mean ± SD, read-out: Cell viability (% of control). On the procedure: as §1
Cells (2 × 10^5) were cultured in 96-well plate containing DMEM supplemented with 10% FBS for 1 day to become nearly confluent. Then, cells were cultured with compounds 1–5 in the presence of 100 ng/mL LPS (lipopolysaccharide) (Eschericha coli 026:B6; Sigma-Aldrich, St. Louis, Mo) for 24 h. After that, the cells were washed twice with DPBS and incubated with 100 μL of 0.5 mg/mL MTT for 2 h at 37 °C testing for cell viability. The medium was then discarded, and 100 μL dimethyl sulfoxide (DMSO) was added. After 30-min incubation, absorbance at 570 nm was read using a microplate reader (Molecular Devices, Sunnyvale, CA, USA).

With `COc1cc(C)c(OC)c(O)c1OC` [Compound 4, 2,3,6-trimethoxy-5-methylphenol], the NO level in data set [1] (dose 0.312 μg/mL) came to 20.6 ± 1.2 µM. In data set [1] (dose 0.625 μg/mL), this compound came in with an NO level of 19.4 ± 2.0 µM. The compound also had an NO level in data set [1] (dose 1.25 μg/mL) of 18.3 ± 0.3 µM. Also, in data set [1] (dose 2.5 μg/mL), the NO level stood at 13.6 ± 0.6 µM. In addition, in data set [2], the viability – broadly, the share of living cells, or the viability signal relative to a control – at 24 h, 0.312 μg/mL came out at 97 ± 1.1%; the viability at 24 h, 0.625 μg/mL was determined as 96.2 ± 2.2%; the viability at 24 h, 1.25 μg/mL came to 95 ± 2.1%; the viability at 24 h, 2.5 μg/mL is 94.6 ± 1.6%. The viability at 24 h, 5 μg/mL in data set [2] turned out to be 69.3 ± 2.1%.
In turn, `COc1c(C)cc(-c2c(O)c(C)c(OC)c3c2OCO3)c2c1OCO2` [Compound 2, 2-hydroxy-4,4′-dimethoxy-3,3′-dimethyl-5,6,5′,6′-bimethylenedioxybiphenyl] came in with an NO level in data set [1] (dose 0.312 μg/mL) of 16.4 ± 2.4 µM. For the same compound, the NO level in data set [1] (dose 0.625 μg/mL) amounted to 16.1 ± 1.3 µM. Besides, in data set [1] (dose 1.25 μg/mL), the NO level turned out to be 15.7 ± 2.0 µM. Besides, the NO level in data set [1] (dose 2.5 μg/mL) stood at 15.5 ± 1.9 µM. In addition, in data set [2], the viability at 24 h, 0.312 μg/mL amounted to 98 ± 1.5%; the viability at 24 h, 0.625 μg/mL is 96.6 ± 7.6%; the viability at 24 h, 1.25 μg/mL was 96.6 ± 2.2%; the viability at 24 h, 2.5 μg/mL came out at 92.7 ± 1.3%. For the same compound, the viability at 24 h, 5 μg/mL in data set [2] came to 71.4 ± 2.2%.
On to `COc1c(C)c(-c2c(C)c(OC)c(O)c3c2OCO3)c2c(c1O)OCO2` [Compound 3, 4,4′-dihydroxy-3,3′-dimethoxy-2,2′-dimethyl-5,6,5′,6′-bimethylenedioxybiphenyl], for which the IC50 (usually the point on the concentration scale where inhibition reaches its midpoint) in data set [1] is 18.8 ± 0.6 µg/mL (≈ 51.9 µM). Besides, the NO level in data set [1] (dose 3.12 μg/mL) was 13.7 ± 0.1 µM; in data set [1] (dose 6.25 μg/mL), 13.4 ± 0.4 µM; in data set [1] (dose 12.5 μg/mL) it was 13.2 ± 0.1 µM; in data set [1] (dose 25 μg/mL), 12.1 ± 0.6 µM. For the same compound, the viability at 24 h, 3.12 μg/mL in data set [2] (dose 3.12 μg/mL) worked out at 95.1 ± 2.9%. The viability at 24 h, 6.25 μg/mL in data set [2] (dose 6.25 μg/mL) was found to be 93.1 ± 2.7%. Also, in data set [2] (dose 12.5 μg/mL), the viability at 24 h, 12.5 μg/mL is 93 ± 2.6%. The viability at 24 h, 25 μg/mL in data set [2] turned out to be 91 ± 7.7%. Also, the viability at 24 h, 50 μg/mL in data set [2] worked out at 64.8 ± 2.2%.
Take `COc1ccc2c(c1)c(CC(=O)O)c(C)n2C(=O)c1ccc(Cl)cc1` [Indomethacin, indomethacin, reference compound]: the NO level in data set [1] (dose 25 μg/mL) is 19.2 ± 0.6 µM; in data set [1] (dose 50 μg/mL) it was 14.3 ± 0.8 µM. Also, the viability at 24 h, 25 μg/mL in data set [2] was determined as 96.2 ± 1.1%. The viability at 24 h, 50 μg/mL in data set [2] turned out to be 94.8 ± 1.3%.
For the compound `C=C(C)c1c(OC)c(O)c(C)c2c1OCO2` [Compound 1, 3-isopropenyl-2-methoxy-6-methyl-4,5-methylenedioxyphenol], the IC50 in data set [1] came to 1.8 ± 0.2 µg/mL (≈ 8.1 µM). In data set [1] (dose 0.312 μg/mL), this compound gave an NO level of 14.5 ± 2.2 µM. This compound gave an NO level in data set [1] (dose 0.625 μg/mL) of 14.1 ± 1.5 µM. The same compound displayed an NO level in data set [1] (dose 1.25 μg/mL) of 13.0 ± 1.5 µM. Besides, the NO level in data set [1] (dose 2.5 μg/mL) came to 12.0 ± 1.7 µM. Moreover, in data set [2], the viability at 24 h, 0.312 μg/mL was 92 ± 3.3%; the viability at 24 h, 0.625 μg/mL is 91 ± 3.7%; the viability at 24 h, 1.25 μg/mL turned out to be 90.4 ± 2.4%; the viability at 24 h, 2.5 μg/mL was found to be 87.3 ± 2.3%. Besides, in data set [2], the viability at 24 h, 5 μg/mL was 65.5 ± 1.7%.
Consider `COc1c(C)cc(O)c2c1OCO2` [Compound 5, 2,3-methylenedioxy-4-methoxy-5-methylphenol], for which the IC50 in data set [1] turned out to be 0.8 ± 0.3 µg/mL (≈ 4.39 µM). Also, the NO level in data set [1] (dose 0.312 μg/mL) worked out at 15.2 ± 1.4 µM. Also, in data set [1] (dose 0.625 μg/mL), the NO level was 12.8 ± 1.9 µM. In data set [1] (dose 1.25 μg/mL), this compound registered an NO level of 12.1 ± 1.6 µM. The same compound had an NO level in data set [1] (dose 2.5 μg/mL) of 10.4 ± 1.3 µM. The compound further showed an NO level in data set [1] (dose 5 μg/mL) of 10.0 ± 2.2 µM. In data set [2], the viability at 24 h, 0.312 μg/mL worked out at 93.8 ± 2.9%; the viability at 24 h, 0.625 μg/mL is 88.5 ± 1.5%; the viability at 24 h, 1.25 μg/mL was determined as 85 ± 2.9%; the viability at 24 h, 2.5 μg/mL came to 83.8 ± 1.9%. Besides, the viability at 24 h, 5 μg/mL in data set [2] was determined as 82.4 ± 2.7%.
